Here are results for ten compounds from patent publication EP4473972A1, “COMBINATIONS COMPRISING AN ATR INHIBITOR WITH SYNERGISTIC EFFECT AGAINST GLIOMAS” (Eberhard-Karls-Universität Tübingen, priority 2023, dated 2024).

One assay has as its system LN229 and LNZ308 cells. In words: 1x1 (IC50xIC50) pre-selection screen, acute cytotoxicity assay, Bliss Independence Criterion. Type of assay: cell-based, human. To be noted: combined with AZD6738, 1x1 (IC50xIC50), 72 h, serum free medium. On the procedure:
(§1) The inventors seeded 5,000 or 10,000 cells, respectively, on day one, treated the next day in serum-free medium and incubated for up to 72 h. Subsequently, they measured cell viability using CellTiterBlue reagent (Promega, Madison, WI, US) according to manufacturer's instructions with a GloMax (Promega, Madison, Wl, US). The inventors normalized measurements to untreated cells.
The inventors leveraged an acute cytotoxicity assay workflow to evaluate potential interaction partners for AZD6738 which were derived from transcriptomic, proteomic and genome-wide CRISPR/Cas9 genetic dependency analyses. In a 1×1/IC50×IC50 set-up, they treated LN229 and LNZ308 cells in serum free medium for 72 h. The inventors used the original Bliss Independence Criterion to evaluate synergism potential. For this, a predicted value for additivity, derived from the product of the two monotherapy settings, was compared to the actual measurement of the combined treatment of the two drugs. […] BMC Systems Biology 4: 50. Subsequently, the inventors subjected LN229, LNZ308, GS-2 and GS-9 cells to 4x4 synergy map assays again in an acute cytotoxicity assay workflow. The inventors used the R package synergyfinder with zero interaction potential (ZIP) synergy scores calculated from 4x4 concentration matrices for each tested combination and the average across the plate; see He et al. (2018); Methods for High-throughput Drug Combination Screening and Synergy Scoring. In Cancer Systems Biology: Methods and Protocols, von Stechow (ed) pp 351-398. New York, NY: Springer New York.

Assay [1] has as its system primary cultures TUE-PC1-6. In words: Combination treatment in primary glioma cultures (Bliss independence Criterion). It is filed as cell-based. The conditions noted are these: plus AZD6738.
From the text: Primary tumor tissue was obtained from fresh residual material upon resection at the Department of Neurosurgery, University Hospital Tübingen. The inventors cut the tissue in small pieces, washed it using Hanks Balanced Salt Solution (HBSS) (Gibco, Carlsbad, CA, US) and digested it by collagenase and dispase (Roche, Basel, CH). To remove any remaining erythrocytes, they used red blood cell lysis buffer (Sigma Aldrich, St. Louis, MO, US). The inventors then cultured the cells as GS cells in Neurobasal®-A medium. They first evaluated AZD6738 sensitivity of each primary culture and selected two concentrations. […] To evaluate combination treatment analyses, the inventors leveraged the Bliss independence Criterion.
as §1

Assay [2] has as its system LN229, LNZ308, GS-2 and GS-9 cells. As to the kind of experiment: 4x4 synergy map assay (ZIP synergy score), all four cell lines. Type of assay: cell-based. The conditions noted are these: combined with AZD6738 (ATRi); across all four cell lines. As for the experimental part:
as §1
The inventors leveraged an acute cytotoxicity assay workflow to evaluate potential interaction partners for AZD6738 which were derived from transcriptomic, proteomic and genome-wide CRISPR/Cas9 genetic dependency analyses. In a 1×1/IC50×IC50 set-up, they treated LN229 and LNZ308 cells in serum free medium for 72 h. The inventors used the original Bliss Independence Criterion to evaluate synergism potential. For this, a predicted value for additivity, derived from the product of the two monotherapy settings, was compared to the actual measurement of the combined treatment of the two drugs. […] The inventors used the R package synergyfinder with zero interaction potential (ZIP) synergy scores calculated from 4x4 concentration matrices for each tested combination and the average across the plate; see He et al. (2018); Methods for High-throughput Drug Combination Screening and Synergy Scoring. […]

In the next assay the test system is LNZ308. In words: 4x4 synergy map assay (ZIP synergy score). Type of assay: cell-based, human. The conditions noted are these: combined with AZD6738 (ATRi). As for the experimental part: as §1
(§2) The inventors leveraged an acute cytotoxicity assay workflow to evaluate potential interaction partners for AZD6738 which were derived from transcriptomic, proteomic and genome-wide CRISPR/Cas9 genetic dependency analyses. […] The inventors used the original Bliss Independence Criterion to evaluate synergism potential. For this, a predicted value for additivity, derived from the product of the two monotherapy settings, was compared to the actual measurement of the combined treatment of the two drugs. […] BMC Systems Biology 4: 50. Subsequently, the inventors subjected LN229, LNZ308, GS-2 and GS-9 cells to 4x4 synergy map assays again in an acute cytotoxicity assay workflow. […] New York, NY: Springer New York.

Another assay has as its system LN229 cells. As to the kind of experiment: 4x4 synergy map assay (ZIP synergy score). Type of assay: cell-based, human. To be noted: combined with AZD6738 (ATRi). As for the experimental part: as §1, §2
For the next assay, the system named is GS-9. As to the kind of experiment: 4x4 synergy map assay (ZIP synergy score). Type of assay: cell-based. The conditions noted are these: combined with AZD6738 (ATRi). As for the experimental part:
as §1, §2

The next assay relates to GS-2 cells. In words: 4x4 synergy map assay (ZIP synergy score). Type of assay: cell-based. To be noted: combined with AZD6738 (ATRi). As for the experimental part:
as §1, §2

Another assay relates to LN229-GFP cells. In words: Zebrafish embryo xenotransplant, tumor area. Type of assay: in vivo, wildtype zebrafish embryos. The conditions noted are these: monotherapy, 48 h of treatment; not significant as compared to the DMSO control. On the procedure:
The inventors used zebrafish wildtype (wt) TE embryos younger than 5 days post-fertilization (dpf). […] Labelled cells were suspended in PBS at 2*10^5 cells/µL and approx. 1 nL cell suspension was injected into the midbrain region of 24 hpf embryos. The inventors incubated the embryos at 28°C for 1 h and afterwards divided them into treatment groups. Only successfully transplanted embryos were used for further experiments. Then, the inventors applied the treatments as indicated in the respective figures and incubated that for 48 h at 35°C. For evaluation of tumor size, they imaged embryos on a Nikon Stereomicroscope (SMZ18) with the NIS Element software. The inventors assessed the tumor surface areas using Imaris (version 9.2.0).

For assay [3], the system named is human and murine cell lines. As to the kind of experiment: Anti-glioma activity in vitro (Figure 1 b). It is filed as cell-based. As for the experimental part:
The inventors seeded 5,000 or 10,000 cells, respectively, on day one, treated the next day in serum-free medium and incubated for up to 72 h. Subsequently, they measured cell viability using CellTiterBlue reagent (Promega, Madison, WI, US) according to manufacturer's instructions with a GloMax (Promega, Madison, Wl, US). The inventors normalized measurements to untreated cells. Cells were seeded the day before treatment. The inventors treated the cells in the indicated concentrations in serum-free medium for 24 h after which they changed the medium back to medium containing FCS, followed by a 7 to 21 day incubation time. The inventors used crystal violet (0.5% w/v) to stain colonies and analyzed the area coverage using the ImageJ software Plugln ColonyArea. Measurements were normalized to respective vehicle control wells.

`COc1ccc2c(c1)[nH]c1c(C)nccc12` [harmine]: in the assay on LN229 and LNZ308 cells, the Bliss synergy scores entry is on record as “top scoring hits”.

In the case of `O=c1sn(-c2cccc3ccccc23)c(=O)n1Cc1ccccc1` [tideglusib, Tideglusib], in the assay on LN229 and LNZ308 cells, the Bliss synergy scores entry was “top scoring hits”. As to `NC(=O)NO` [hydroxyurea, hydroxycarbamide], the Bliss synergy scores result in the assay on LN229 and LNZ308 cells was “top scoring hits”. The “combination efficacy (Bliss Independence Criterion)” value in assay [1] (TUE-PC1, TUE-PC4, TUE-PC5) is listed as “not”; in assay [1] (TUE-PC2, TUE-PC3 and TUE-PC6), “synergistic readout”. In assay [2], the “ZIP synergy score (synergism signature)” value is “synergism signature”. `O=C(c1cc(Cc2n[nH]c(=O)c3ccccc23)ccc1F)N1CCN(C(=O)C2CC2)CC1` [olaparib, Olaparib]: the “ZIP synergy score (interaction with ATRi)” value is “do not” in the assay with LNZ308, “synergistic interaction” in the assay on LN229 cells, “do not” with GS-9 and “synergistic interaction” in the assay with GS-2 cells. Besides, the Bliss synergy scores entry in the assay with LN229 and LNZ308 cells is recorded as “top scoring hits”.

With `COc1cc([C@@H]2c3cc4c(cc3[C@@H](O[C@@H]3O[C@@H]5CO[C@@H](C)O[C@H]5[C@H](O)[C@H]3O)[C@H]3COC(=O)[C@H]23)OCO4)cc(OC)c1O` [etoposide, Etoposide], in the assay on LN229 and LNZ308 cells, the Bliss synergy scores result is reported as “top scoring hits”.

Take `O=C(CCCCCCC(=O)Nc1ccccc1)NO` [vorinostat, suberoylanilide hydroxamic acid]: the Bliss synergy scores result in the assay on LN229 and LNZ308 cells was “top scoring hits”. Consider `CO[C@H]1C[C@@H]2CC[C@@H](C)[C@@](O)(O2)C(=O)C(=O)N2CCCC[C@H]2C(=O)O[C@H]([C@H](C)C[C@@H]2CC[C@@H](OCCO)[C@H](OC)C2)CC(=O)[C@H](C)/C=C(\C)[C@@H](O)[C@@H](OC)C(=O)[C@H](C)C[C@H](C)/C=C/C=C/C=C/1C` [everolimus], for which the Bliss synergy scores result in the assay with LN229 and LNZ308 cells was “top candidates”. Turning to `N.N.[Cl][Pt][Cl]` [cisplatin, cis-diammine dichloridoplatin], the tumor area result with LN229-GFP cells is listed as “modest decrease”. Moreover, the “combination efficacy (Bliss Independence Criterion)” value in assay [1] (all six primary cultures) was “synergistic read-outs”. Further, the “ZIP synergy score (synergism signature)” value in [2] was “synergism signature”. For the compound `COc1cccc2c1C(=O)c1c(O)c3c(c(O)c1C2=O)C[C@@](O)(C(=O)CO)C[C@@H]3O[C@H]1C[C@H](N)[C@H](O)[C@H](C)O1` [doxorubicin], the Bliss synergy scores result in the assay with LN229 and LNZ308 cells is on record as “top scoring hits”. In the case of `CNCc1ccc(-c2cc(-c3nc(-c4ccc(S(=O)(=O)C(C)C)cc4)cnc3N)on2)cc1` [Berzosertib, berzosertib], the “anti-glioma activity in vitro” value in assay [3] is “significant anti-glioma activity”.
